From patent US20030104507A1, “Method for detection of ATP” (priority 2001, published 2003)

System: LucPpe2m146
Test: Stability of reagent composition with LucPpe2m146 and detergent (RT, pH 7.0)
Type: biochemical, Photuris pennsylvanica
Excerpt: The detergents used for inhibition of endogenous ATPase activity in a sample also affect activity of luciferase. […] It is ultimately the extended stability of a reagent composition, comprising an ATPase inhibitor and a luciferase enzyme, which provides a composition useful for measuring ATP, in a sample or samples, over an extended period of time.
In this experiment, the stability of a reagent composition comprising wild type LucPpy was compared to the stability of a reagent composition comprising LucPpe2m146 at about 23° C. (room temperature). The various reagent compositions had varying detergent concentrations.
Two solutions were created as listed below. One contained the luciferase, luciferin, MgSO4, and buffer (reagent composition). The other solution contained media plus ATP (media solution).
50 μg/ml enzyme (LucPpy is Promega catalog #E170A)
Detergent (at various concentrations, see table below)
For each reagent composition, all ingredients except the luciferase enzyme were assembled; the enzyme was then added immediately before the first luminescence reading was taken. Immediately after addition of enzyme to each reagent composition and for various timepoints thereafter, 100 μl aliquots of the reagent composition were added to wells of a 96-well microtitre luminometer plate in triplicate. To these were added 100 μl Media Solution containing the ATP. Luminescence was then immediately read on a Dynex MLX microtitreplate luminometer, 0.5 second reads per well. The average relative light unit values as well as the reaction half lives are listed below in Table I and the percent of original luminescence remaining at each timepoint is listed in Table J below. The timepoint at the top of the column indicates the time at which the first rlu measurement for the samples in that column was read. […] Times listed in Table I are the same for Table J. The values for sulfobetaine and for CTAB were generated on different days, they are presented with the control values generated in the same experiment.

[1] = LucPpe2m146, 0.02%, 1.0 min (head r67)
[2] = LucPpe2m146, 0.02%, 1.0 min (times of Table I r67)
[3] = LucPpe2m146, 0.02%, 34 min (head r67)
[4] = LucPpe2m146, 0.02%, 34 min (times of Table I r67)
[5] = LucPpe2m146, 0.02%, 65 min (head r67)
[6] = LucPpe2m146, 0.02%, 65 min (times of Table I r67)
[7] = LucPpe2m146, 0.02%, 115 min (head r67)
[8] = LucPpe2m146, 0.02%, 115 min (times of Table I r67)
[9] = LucPpe2m146, 0.02%, 175 min (head r67)
[10] = LucPpe2m146, 0.02%, 175 min (times of Table I r67)
[11] = LucPpe2m146, 0.02%, 238 min (head r67)
[12] = LucPpe2m146, 0.02%, 238 min (times of Table I r67)
[13] = LucPpe2m146, 0.02%, 286 min (head r67)
[14] = LucPpe2m146, 0.02%, 286 min (times of Table I r67)
[15] = LucPpe2m146, 0.1%, 1.0 min (head r54)
[16] = LucPpe2m146, 0.1%, 1.0 min (times of Table I r54)
[17] = LucPpe2m146, 0.1%, 34 min (head r54)
[18] = LucPpe2m146, 0.1%, 34 min (times of Table I r54)
[19] = LucPpe2m146, 0.1%, 65 min (head r54)
[20] = LucPpe2m146, 0.1%, 65 min (times of Table I r54)
[21] = LucPpe2m146, 0.1%, 115 min (head r54)
[22] = LucPpe2m146, 0.1%, 115 min (times of Table I r54)
[23] = LucPpe2m146, 0.1%, 175 min (head r54)
[24] = LucPpe2m146, 0.1%, 175 min (times of Table I r54)
[25] = LucPpe2m146, 0.1%, 238 min (head r54)
[26] = LucPpe2m146, 0.1%, 238 min (times of Table I r54)
[27] = LucPpe2m146, 0.1%, 286 min (head r54)
[28] = LucPpe2m146, 0.1%, 286 min (times of Table I r54)
[29] = LucPpe2m146, 0.5%, 15 min (head r41)
[30] = LucPpe2m146, 0.5%, 15 min (times of Table I r41)
[31] = LucPpe2m146, 0.5%, 72 min (head r41)
[32] = LucPpe2m146, 0.5%, 72 min (times of Table I r41)
[33] = LucPpe2m146, 0.5%, 124 min (head r41)
[34] = LucPpe2m146, 0.5%, 124 min (times of Table I r41)
[35] = LucPpe2m146, 0.5%, 190 min (head r41)
[36] = LucPpe2m146, 0.5%, 190 min (times of Table I r41)
[37] = LucPpe2m146, 0.5%, 251 min (head r41)
[38] = LucPpe2m146, 0.5%, 251 min (times of Table I r41)

`CCCCCCCCCCCC[N+](C)(C)Cc1ccccc1.[Br-]` [BDDABr, Benzyldimethyldodecylammonium bromide] was tested. Which “Average Relative Light Units” value [1] did it give?
Its value is 26548.60 rlu.

What about the “Percent of Luminescence Remaining” value [2] of the same molecule?
Its value is 100.00%.

And the “Average Relative Light Units” value [3]?
Its value is 26272.87 rlu.

And the “Percent of Luminescence Remaining” value [4]?
Its value is 98.96%.

What about the “Average Relative Light Units” value [5] of the same molecule?
The value was 25766.43 rlu.

What about the “Percent of Luminescence Remaining” value [6] of the same molecule?
The value was 97.05%.

What about the “Average Relative Light Units” value [7] of the same molecule?
Its value is 24155.00 rlu.

And the “Percent of Luminescence Remaining” value [8]?
The value was 90.98%.

What about the “Average Relative Light Units” value [9] of the same molecule?
The value was 25891.70 rlu.

And the “Percent of Luminescence Remaining” value [10]?
The value was 97.53%.

And the “Average Relative Light Units” value [11]?
Its value is 24959.1 rlu.

What about the “Percent of Luminescence Remaining” value [12] of the same molecule?
Its value is 94.01%.

And the “Average Relative Light Units” value [13]?
Its value is 24510.1 rlu.

And the “Percent of Luminescence Remaining” value [14]?
The value was 92.32%.

What about the “Average Relative Light Units” value [15] of the same molecule?
The value was 29.71 rlu.

And the “Percent of Luminescence Remaining” value [16]?
Its value is 100.00%.

And the “Average Relative Light Units” value [17]?
Its value is 66.09 rlu.

What about the “Percent of Luminescence Remaining” value [18] of the same molecule?
The value was 222.47%.

What about the “Average Relative Light Units” value [19] of the same molecule?
The value was 62.19 rlu.

What about the “Percent of Luminescence Remaining” value [20] of the same molecule?
The value was 209.32%.

What about the “Average Relative Light Units” value [21] of the same molecule?
The value was 45.18 rlu.

And the “Percent of Luminescence Remaining” value [22]?
Its value is 152.09%.

And the “Average Relative Light Units” value [23]?
The value was 33.89 rlu.

What about the “Percent of Luminescence Remaining” value [24] of the same molecule?
Its value is 114.06%.

What about the “Average Relative Light Units” value [25] of the same molecule?
Its value is 34.46 rlu.

And the “Percent of Luminescence Remaining” value [26]?
The value was 115.98%.

What about the “Average Relative Light Units” value [27] of the same molecule?
Its value is 126.90 rlu.

And the “Percent of Luminescence Remaining” value [28]?
Its value is 427.13%.

And the “Average Relative Light Units” value [29]?
The value was 2.040 rlu.

What about the “Percent of Luminescence Remaining” value [30] of the same molecule?
Its value is 100.00%.

And the “Average Relative Light Units” value [31]?
Its value is 1.140 rlu.

And the “Percent of Luminescence Remaining” value [32]?
The value was 55.90%.

What about the “Average Relative Light Units” value [33] of the same molecule?
The value was 0.998 rlu.

What about the “Percent of Luminescence Remaining” value [34] of the same molecule?
The value was 48.93%.

What about the “Average Relative Light Units” value [35] of the same molecule?
The value was 0.899 rlu.

What about the “Percent of Luminescence Remaining” value [36] of the same molecule?
Its value is 44.07%.

And the “Average Relative Light Units” value [37]?
Its value is 1.042 rlu.

What about the “Percent of Luminescence Remaining” value [38] of the same molecule?
Its value is 51.10%.

Which results are given for `C[C@H](CCC(=O)[O-])[C@H]1CC[C@H]2[C@@H]3CC[C@@H]4C[C@H](O)CC[C@]4(C)[C@H]3C[C@H](O)[C@]12C.[Na+]` [Deoxycholate, sodium deoxycholate]?
Average Relative Light Units [1]: 24307.30 rlu; Percent of Luminescence Remaining [2]: 100.00%; Average Relative Light Units [3]: 24639.00 rlu; Percent of Luminescence Remaining [4]: 101.36%; Average Relative Light Units [5]: 24717.97 rlu; Percent of Luminescence Remaining [6]: 101.69%; Average Relative Light Units [7]: 23158.37 rlu; Percent of Luminescence Remaining [8]: 95.27%; Average Relative Light Units [9]: 24655.43 rlu; Percent of Luminescence Remaining [10]: 101.43%; Average Relative Light Units [11]: 24320.6 rlu; Percent of Luminescence Remaining [12]: 100.05%; Average Relative Light Units [13]: 24303.9 rlu; Percent of Luminescence Remaining [14]: 99.99%; Average Relative Light Units [15]: 5150.43 rlu; Percent of Luminescence Remaining [16]: 100.00%; Average Relative Light Units [17]: 5031.12 rlu; Percent of Luminescence Remaining [18]: 97.68%; Average Relative Light Units [19]: 6855.67 rlu; Percent of Luminescence Remaining [20]: 133.11%; Average Relative Light Units [21]: 6340.45 rlu; Percent of Luminescence Remaining [22]: 123.11%; Average Relative Light Units [23]: 7347.09 rlu; Percent of Luminescence Remaining [24]: 142.65%; Average Relative Light Units [25]: 6801.23 rlu; Percent of Luminescence Remaining [26]: 132.05%; Average Relative Light Units [27]: 7472.54 rlu; Percent of Luminescence Remaining [28]: 145.09%; Average Relative Light Units [29]: 45.977 rlu; Percent of Luminescence Remaining [30]: 100.00%; Average Relative Light Units [31]: 229.874 rlu; Percent of Luminescence Remaining [32]: 499.98%; Average Relative Light Units [33]: 2059.397 rlu; Percent of Luminescence Remaining [34]: 4479.22%; Average Relative Light Units [35]: 1414.397 rlu; Percent of Luminescence Remaining [36]: 3076.34%; Average Relative Light Units [37]: 1342.963 rlu; Percent of Luminescence Remaining [38]: 2920.97%
